Test: cn = amount concentration of the nth substance listed, in mol/dm3
Details: 101 kPa, Liquid; for viscosity: Capillary tube (Ostwald / Ubbelohde) method; for mass density: Pycnometric method

NCCCC[C@H](N)C(=O)[O-].[K+] [potassium L-lysinate] + O
Details	mass density, 298 K [kg/m3]	mass density, 308 K [kg/m3]	mass density, 313 K [kg/m3]	viscosity, 298 K [mPa·s]	viscosity, 308 K [mPa·s]	viscosity, 313 K [mPa·s]
c1 = 0.5	1038.6	1036.3	1030.7	1.162	0.9848	0.894
c1 = 1.5	1108.9	1107.5	1105.1	2.284	1.905	1.686
c1 = 2.5	1173.8	1171.1	1168.8	3.165	2.653	2.416

— the NIST ThermoML archive (doi:10.1016/j.fluid.2015.03.031)
